Laboratory results taken from US9873693B2 (Sunesis Pharmaceuticals, Inc., priority 2006, dated 2018).
Read-outs that look alike come from different tables or passages of the source.

How the values were obtained:
phosphorylated PDK1 = phosphorylated PDK1 (Homo sapiens (Human), UniProt O15530); assay: PDK1 kinase assay (coupled PDK1/AKT/FAM-crosstide, IMAP); assay type: biochemical; details: 0.5 nM phosphorylated PDK1, 24 μM ATP; read-out: Inhibition of phospo-PDK1 in vitro IC50
dephosphorylated PDK1 = dephosphorylated PDK1 (Homo sapiens (Human), UniProt O15530); assay: as above; assay type: biochemical; details: 25 nM un-phosphorylated PDK1, 24 μM ATP; read-out: Inhibition of dephospo-PDK1 in vitro IC50
dephosphorylated PDK1, sequence (O15530 51-360): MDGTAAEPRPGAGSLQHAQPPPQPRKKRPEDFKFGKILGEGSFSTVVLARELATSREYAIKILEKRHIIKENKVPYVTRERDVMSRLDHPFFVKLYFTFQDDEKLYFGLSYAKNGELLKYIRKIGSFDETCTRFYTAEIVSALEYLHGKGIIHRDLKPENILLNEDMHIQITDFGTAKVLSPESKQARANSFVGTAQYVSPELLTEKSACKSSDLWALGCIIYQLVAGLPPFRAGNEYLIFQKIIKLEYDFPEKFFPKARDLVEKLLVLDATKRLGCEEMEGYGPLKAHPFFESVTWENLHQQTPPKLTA
In short: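 The FAM-crosstide phosphorylation readout was IMAP polarization (ex 485/em 530 nm, 2 h binding), with 4-parameter fits of ΔmP data. The reaction ran 30 min at 25 °C with 24 μM ATP, and contained 25 nM phosphatase-treated PDK1 (aa 51–360) plus 30 nM unphosphorylated AKT2-PIFtide and 100 nM substrate. Buffer was 10 mM Tris pH 7.2, 10 mM MgCl2, 0.01% Triton X-100 and 1 mM DTT.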

full-length PDK1 = full-length PDK1 (Homo sapiens (Human), UniProt O15530); assay: PDK phosphorylation of AKT and PKC-PIFtide in presence of PIP3 vesicles; assay type: biochemical; details: substrates PKC-PIFtide vs AKT2
full-length PDK1, sequence (O15530 whole entry): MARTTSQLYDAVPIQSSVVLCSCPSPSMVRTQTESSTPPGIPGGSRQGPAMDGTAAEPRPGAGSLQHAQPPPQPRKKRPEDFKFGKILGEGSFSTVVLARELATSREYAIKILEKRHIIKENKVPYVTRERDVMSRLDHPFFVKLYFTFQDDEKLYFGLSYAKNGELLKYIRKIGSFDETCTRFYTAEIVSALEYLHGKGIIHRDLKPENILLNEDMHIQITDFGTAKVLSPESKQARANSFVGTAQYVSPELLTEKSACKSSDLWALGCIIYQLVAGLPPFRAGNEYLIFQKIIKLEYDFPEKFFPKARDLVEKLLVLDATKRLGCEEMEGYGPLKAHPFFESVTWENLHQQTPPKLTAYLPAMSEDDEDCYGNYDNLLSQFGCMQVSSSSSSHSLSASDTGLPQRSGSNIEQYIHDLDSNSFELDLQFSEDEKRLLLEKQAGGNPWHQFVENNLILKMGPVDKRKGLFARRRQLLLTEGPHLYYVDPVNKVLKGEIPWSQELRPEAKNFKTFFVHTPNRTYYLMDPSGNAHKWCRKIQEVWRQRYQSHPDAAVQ
Protocol: PDK phosphorylation of two different substrates, AKT and PKC-PIFtide, was measured in presence of pre-formed phophoinositol lipid PIP3 vesicles. 5 nM full-length PDK1 and was incubated with 100 nM substrate (unphosphorylated, full-length AKT2 or PKC-PIFtide, Invitrogen cat#P2925) in presence of test compound or DMSO at room temperature for 3 hours. Final buffer conditions were 10 mM Tris pH 7.5 buffer containing 10 mM MgCl2, 0.002% Triton X-100, 1 mM DTT, 0.2 mg/ml BSA, 10 uM PtdIns(3,4,5)P3 (Matreya, Inc), 100 uM DOPC:DOPS (Avanti Polar Lipids), and 0.5 uCi γ^33P-ATP (3000 Ci/mmol, Perkin-Elmer.)
Kinase reactions were stopped with addition of 50 uM non-labelled ATP and 5 mM EDTA, then acidified with 0.5% final concentration phosphoric acid. Labeled proteins were collected in Whatman P81 filter plates and washed with three 150 ul volumes of 0.5% phosphoric acid.
Lipid vesicles were pre-formed as follows. 15 mg (3 ampules) DOPC:DOPS was resuspended in 898 ul 10 mM HEPES pH 7.4. 1 mg PIP3 was resuspended in 1000 ul 10 mM HEPES pH 7.4. 964 ul of PIP3 was mixed with 800 ul DOPC:DOPS and diluted with 18.2 ml 10 mM HEPES pH 7.4 and mixed by vortexing. The lipid mixture was subjected to 5 cycles of freeze/thaw using liquid nitrogen and a 50° C. water bath. Aliquot of lipids were flash frozen and stored at −20° C.

phospho-akt (Thr308) = phospho-akt (Thr308) MSD ELISA in PC-3 cells; assay type: cell-based; details: Homo sapiens, PC-3 cells; for EC50: PC-3, 2 h, 2 hours, no serum; for inhibition at 1 µM / inhibition at 10 µM: read-out: Percent Inhibition of phospho-Akt (308) By MSD ELISA
In short: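 Read-out is MSD electrochemiluminescence after lysate capture overnight at 4 degrees and 1 hr RT detection-antibody step. Before lysis, overnight-plated PC-3 cells received three-fold serial dilutions of inhibitor in serum-free medium, with DMSO-only high controls.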

Phospho-T308 Akt = Phospho-T308 Akt detection using immunoblot (western blot) in PC-3 cells; assay type: cell-based; details: for Reduction of Cellular Levels of Akt p308 By Western: 2 hour incubation, concentration not given in Table 2
Protocol: A Phospho-T308 Akt detection using immunoblot (western blot) analysis was performed as described below.
PC-3 prostate cells were plated in a 6 well plate in F12K media (Invitrogen, Carlsbad, Calif.) plus 10% FBS (Invitrogen) and placed in incubator overnight. The stock of compound A was a 50 mM solution in DMSO. 1000× dilutions of the compound were made in DMSO. The 1000× dilutions include, 35 mM, 25 mM, 15 mM, 10 mM, 7 mM, 5 mM, and 1 mM. 1 μl of the 1000× dilutions was added to 1 ml F12K media without serum for final concentrations of […]. 1 μl of DMSO was added to 1 ml media with no serum for a control. The 1 ml DMSO or compound plus media was then added to the cells. Following a 2 hour incubation at 37° C., cells were harvested and washed in PBS and subjected to centrifugation at 3,300 rpm for 5 minutes. Cells were lysed in 100 μl of Bio Rad Bioplex buffer containing protease inhibitors (BioRad, Hercules, Calif.) for 30 minutes on ice followed by centrifugation at 13,000 rpm for 5 minutes. The protein content of the supernatant was assayed using DC Protein Assay (BioRad). 25 μl of protein was added to 4× sample buffer (Invitrogen) and sample reducer (Invitrogen) and run on a 4-12% NuPage gel (Invitrogen). Proteins were then transferred to nitrocellulose (Invitrogen). The membrane was blocked in Tris-buffered saline (Sigma, St. Louis, Mo.) plus 0.1% Tween (Sigma) (T-TBS) plus 5% blotting grade milk (BioRad) for 60 minutes. Membranes were then incubated in T-TBS plus 5% BSA (Sigma) plus 1:1000 of anti-phospho akt (Thr 308) (Cell Signaling Technology, Beverly, Mass.) overnight at 4° C. Membranes were washed in T-TBS then incubated in 1:2000 of anti-rabbit-HRP (Cell Signaling) in TTBS plus 5% milk. Membranes were washed again and proteins were visualized with Super Signal West Pico (Pierce, Rockford, Ill.) and using Kodak BioMax MR film (Kodak, Rochester, N.Y.).
Phospho-akt 308 protein bands on the film were quantified using densitometry. An Alpha Imager (Alpha Innotech Corp, San Leandro, Calif.) using AlphaEase FC software version 4.1.0 (Alpha Innotech Corp.) was used to quantitate protein bands. Briefly, a rectangle of equal size was placed around each protein band as well as a background spot on the film. The densitometry values (IDV=Integrated Density Value) obtained for the background spot was then subtracted from the values obtained for the protein bands. These values were used to obtain an EC50 value using non-linear regression analysis in GraphPad Prism Version 4.00 (Graph Pad Prism, San Diego, Calif.). Percent decrease in expression of phosphoh-akt 308 were also measured specifically at 2 μM and 5 μM levels of inhibitor.

[1] = read-out: Inhibition of P308 Akt in cells using MSD EC50
[2] = Homo sapiens, read-out: Percent Inhibition of phospho-Akt (308) By Western
[3] = read-out: Reduction of Cellular Levels of Akt p308 By MSD ELISA (EC50 μM)

phosphorylated PDK1, sequence (O15530 51-360): as the sequence (O15530 51-360) above

Row | SMILES | IC50 (phosphorylated PDK1) [nM] | IC50 (dephosphorylated PDK1) [nM] | Ratio of PIP3 IC50 with PKCtide to PIP3 IC50 with AKT (full-length PDK1) | EC50 (phospho-akt (Thr308); [1]) [µM] | inhibition at 1 µM (phospho-akt (Thr308)) [%] | inhibition at 10 µM (phospho-akt (Thr308)) [%] | Reduction of Cellular Levels of Akt p308 By Western (Phospho-T308 Akt) | inhibition at 5 µM (Phospho-T308 Akt; [2]) [%] | EC50 (phospho-akt (Thr308); [3]) [µM] | inhibition at 2 µM (Phospho-T308 Akt; Homo sapiens, at 2 μM, read-out: Percent Inhibition of phospho-Akt (308) By Western) [%]
1 | O=C(NCCCCc1c[nH]c2ncccc12)c1cccn(Cc2ccc(F)c(F)c2)c1=O [Cpd 110] | < 500 | < 500 | 13.5 |  |  |  |  |  |  | 
2 | CNC(=O)C[C@@H](NC(=O)c1cccn(Cc2ccc(F)c(F)c2)c1=O)c1ncc(-c2c[nH]c3ncccc23)s1 [Cpd 137] | < 500 | < 500 |  | > 5 | < 25 | > 75 | bbb (inhibition of more than 75%) | > 75 |  | 
3 | O=C(O)C[C@@H](NC(=O)c1cccn(Cc2ccc(F)c(F)c2)c1=O)c1nnc(-c2c[nH]c3ncccc23)o1 [Cpd 287] | < 500 | < 500 |  |  | < 25 | < 25 | bb (inhibition of from 25% to 75%) | 25 to 75 |  | 
4 | O=C(Nc1c(F)cccc1Oc1ccc2[nH]c(=O)[nH]c2c1)c1cccn(Cc2ccc(F)c(F)c2)c1=O [Cpd 133] | < 500 | < 500 |  |  | < 25 | 25 to 75 | bbb (inhibition of more than 75%) | > 75 |  | 
5 | O=C(C[C@@H](NC(=O)c1cccn(Cc2ccc(F)c(F)c2)c1=O)c1nnc(-c2c[nH]c3ncccc23)o1)NCCN1CCCC1 [Cpd 298] | < 500 | < 500 |  |  | < 25 | < 25 | b (inhibition of less 25%) | < 25 |  | 
6 | O=C(NCc1noc(-c2c[nH]c3ncccc23)n1)c1cc(Cl)cn(Cc2ccc(Cl)cc2)c1=O [Cpd 309] | < 500 | < 500 |  | 1 to 5 | 25 to 75 | > 75 | bb (inhibition of from 25% to 75%) | 25 to 75 |  | 
7 | NC[C@@H](NC(=O)c1cccn(Cc2ccc(F)c(F)c2)c1=O)c1nnc(-c2c[nH]c3ncccc23)o1 [Cpd 283] | < 500 | < 500 |  | 1 to 5 |  |  | bb (inhibition of from 25% to 75%) | 25 to 75 | 1 to 5 | 
8 | O=C(NCc1cccc(-c2cn[nH]c2)c1)c1cccn(Cc2ccc(F)c(F)c2)c1=O [Cpd 222] | 500 to 10000 | < 500 |  |  |  |  | bb (inhibition of from 25% to 75%) | 25 to 75 | > 5 | 
9 | O=C(NCc1ccc(-c2c[nH]c3nccnc23)s1)c1cccn(Cc2ccc(F)c(F)c2)c1=O [Cpd 14] | < 500 | < 500 |  |  | 25 to 75 | 25 to 75 | bb (inhibition of from 25% to 75%) |  |  | 25 to 75
10 | COC(=O)[C@H](COc1ccc2[nH]c(=O)[nH]c2c1)NC(=O)c1cccn(Cc2ccc(F)c(F)c2)c1=O [Cpd 135] | < 500 | < 500 |  | 1 to 5 |  |  | bbb (inhibition of more than 75%) | > 75 | 1 to 5 | 
11 | O=C(NCc1noc(-c2c[nH]c3ncccc23)n1)c1cccn(Cc2ccc(Cl)c(F)c2)c1=O [Cpd 304] | < 500 | < 500 |  | 1 to 5 | < 25 | > 75 | bbb (inhibition of more than 75%) | > 75 |  | 
12 | CN(C)C(=O)C[C@@H](NC(=O)c1cccn(Cc2ccc(F)c(F)c2)c1=O)c1nnc(-c2c[nH]c3ncccc23)o1 [Cpd 290] | 500 to 10000 | < 500 |  |  | < 25 | 25 to 75 | bb (inhibition of from 25% to 75%) | 25 to 75 |  | 
13 | O=C(NCc1noc(-c2c[nH]c3ncccc23)n1)c1cccn(Cc2ccc(Cl)cc2)c1=O [Cpd 305] | < 500 | < 500 |  | 1 to 5 | < 25 | > 75 | bbb (inhibition of more than 75%) | > 75 |  | 
14 | CC(C)(C)OC(=O)NC[C@@H](NC(=O)c1cccn(Cc2ccc(F)c(F)c2)c1=O)c1nc(-c2c[nH]c3ncccc23)cs1 [Cpd 295] | < 500 | < 500 |  | 1 to 5 | < 25 | > 75 | bb (inhibition of from 25% to 75%) | 25 to 75 |  | 
15 | C=CCOC(=O)C[C@@H](NC(=O)c1cccn(Cc2ccc(F)c(F)c2)c1=O)c1ncc(-c2c[nH]c3ncccc23)o1 [Cpd 301] | < 500 | < 500 |  | 1 to 5 | 25 to 75 | 25 to 75 | bbb (inhibition of more than 75%) | > 75 | 1 to 5 | 
16 | CC(C)(C)OC(=O)C[C@@H](NC(=O)c1cccn(Cc2ccc(F)c(F)c2)c1=O)c1nnc(-c2c[nH]c3ncccc23)o1 [Cpd 286] | < 500 | < 500 |  | < 1 | 25 to 75 | > 75 | bbb (inhibition of more than 75%) | > 75 |  | 
17 | NC(=O)C[C@@H](NC(=O)c1cccn(Cc2ccc(F)c(F)c2)c1=O)c1ncc(-c2c[nH]c3ncccc23)o1 [Cpd 306] | < 500 | < 500 |  |  | < 25 | 25 to 75 | bbb (inhibition of more than 75%) | > 75 |  | 
